According to patent publication US7118895B2, “Process for producing aglycon by using diglycosidase and flavor-improved food containing the aglycon and converting agent to be used in the process” (Amano Enzyme Inc., priority 2000, dated 2006):

Tested on: Crude diglycosidase
Assay: Examination of substrate concentration in the conversion into isoflavone aglycons by diglycosidase using soybean materials;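 further: percent of the isoflavone family total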
Type: biochemical, Penicillium multicolor IAM7153
Conditions: concentrated soybean protein
Method: Into 20 mM acetate buffer of pH 4.0 was suspended 0.1 g, 0.25 g, 0.5 g, 1.0 g, or 1.5 g of each of various soybean materials (roasted soy flour (manufactured by Fuji Shokuryo K.K.), soymilk (manufactured by Gitoh Shokuhin K.K.), defatted soybean (manufactured by Fuji Seiyu K.K.), concentrated soybean protein (manufactured by Fuji Seiyu K.K.)). The pH of the suspension was measured and the liquid volume was adjusted to 4.5 mL while the pH was adjusted to 4.0 with 1N hydrochloric acid. An enzyme solution wherein diglycosidase activity of crude diglycosidase was adjusted to 1.88 AU/mL was added thereto in an amount of 0.5 mL, whereby the final liquid volume was 5.0 mL. Namely, the ratio of the soybean material in the reaction mixture was 2%, 5%, 10%, 20%, or 30% (w/v). The whole was reacted at 55° C. under shaking. To 5 mL of the reaction mixture was added 7 mL of ethanol after 0, 1, 3, and 6 hours of the reaction. After ultrasonication, the mixture was thoroughly mixed. It was subjected to centrifugal separation at 2,000 rpm and room temperature for 5 minutes. Then, […] of the supernatant was placed in a 1.5 mL microtube and was subjected to centrifugal separation at 15,000 rpm and 4° C. for 10 minutes. The supernatant was filtered through a filter and each sample was suitably diluted by a factor of 1 to 6 depending on the substrate concentration. Fifty μL of the diluted solution was analyzed by HLPC (Tables 27 to 38).

Decomposition efficiency: ratio of each glycoside/aglycon within its isoflavone family (substrate concentration 2%, heat treatment of enzyme no, reaction time 0 h): not detected
Decomposition efficiency: ratio of each glycoside/aglycon within its isoflavone family (substrate concentration 2%, heat treatment of enzyme no, reaction time 1 h): not detected
Decomposition efficiency: ratio of each glycoside/aglycon within its isoflavone family (substrate concentration 2%, heat treatment of enzyme no, reaction time 3 h): not detected
Decomposition efficiency: ratio of each glycoside/aglycon within its isoflavone family (substrate concentration 2%, heat treatment of enzyme no, reaction time 6 h): not detected
Decomposition efficiency: ratio of each glycoside/aglycon within its isoflavone family (substrate concentration 2%, heat treatment of enzyme yes, reaction time 6 h): not detected
Decomposition efficiency: ratio of each glycoside/aglycon within its isoflavone family (substrate concentration 5%, heat treatment of enzyme no, reaction time 0 h): not detected
Decomposition efficiency: ratio of each glycoside/aglycon within its isoflavone family (substrate concentration 5%, heat treatment of enzyme no, reaction time 1 h): not detected
Decomposition efficiency: ratio of each glycoside/aglycon within its isoflavone family (substrate concentration 5%, heat treatment of enzyme no, reaction time 3 h): not detected
Decomposition efficiency: ratio of each glycoside/aglycon within its isoflavone family (substrate concentration 5%, heat treatment of enzyme no, reaction time 6 h): not detected
Decomposition efficiency: ratio of each glycoside/aglycon within its isoflavone family (substrate concentration 5%, heat treatment of enzyme yes, reaction time 6 h): not detected
Decomposition efficiency: ratio of each glycoside/aglycon within its isoflavone family (substrate concentration 10%, heat treatment of enzyme no, reaction time 0 h): not detected
Decomposition efficiency: ratio of each glycoside/aglycon within its isoflavone family (substrate concentration 10%, heat treatment of enzyme no, reaction time 1 h): not detected
Decomposition efficiency: ratio of each glycoside/aglycon within its isoflavone family (substrate concentration 10%, heat treatment of enzyme no, reaction time 3 h): not detected
Decomposition efficiency: ratio of each glycoside/aglycon within its isoflavone family (substrate concentration 10%, heat treatment of enzyme no, reaction time 6 h): not detected
Decomposition efficiency: ratio of each glycoside/aglycon within its isoflavone family (substrate concentration 10%, heat treatment of enzyme yes, reaction time 6 h): not detected
Decomposition efficiency: ratio of each glycoside/aglycon within its isoflavone family (substrate concentration 20%, heat treatment of enzyme no, reaction time 0 h): not detected
Decomposition efficiency: ratio of each glycoside/aglycon within its isoflavone family (substrate concentration 20%, heat treatment of enzyme no, reaction time 1 h): not detected
Decomposition efficiency: ratio of each glycoside/aglycon within its isoflavone family (substrate concentration 20%, heat treatment of enzyme no, reaction time 3 h): not detected
Decomposition efficiency: ratio of each glycoside/aglycon within its isoflavone family (substrate concentration 20%, heat treatment of enzyme no, reaction time 6 h): not detected
Decomposition efficiency: ratio of each glycoside/aglycon within its isoflavone family (substrate concentration 20%, heat treatment of enzyme yes, reaction time 6 h): not detected
Decomposition efficiency: ratio of each glycoside/aglycon within its isoflavone family (substrate concentration 30%, heat treatment of enzyme no, reaction time 0 h): not detected
Decomposition efficiency: ratio of each glycoside/aglycon within its isoflavone family (substrate concentration 30%, heat treatment of enzyme no, reaction time 1 h): not detected
Decomposition efficiency: ratio of each glycoside/aglycon within its isoflavone family (substrate concentration 30%, heat treatment of enzyme no, reaction time 3 h): not detected
Decomposition efficiency: ratio of each glycoside/aglycon within its isoflavone family (substrate concentration 30%, heat treatment of enzyme no, reaction time 6 h): not detected
Decomposition efficiency: ratio of each glycoside/aglycon within its isoflavone family (substrate concentration 30%, heat treatment of enzyme yes, reaction time 6 h): not detected
SMILES: O=C(O)CC(=O)OC[C@H]1O[C@@H](Oc2ccc3c(=O)c(-c4ccc(O)cc4)coc3c2)[C@H](O)[C@@H](O)[C@@H]1O [malonydaidzin]
